Measured values from patent US10596296B2, “Heparan sulphates” (Agency for Science, Technology and Research, priority 2014, dated 2020).

Legend:
TGF-β1 [1] = molecular target: T1, TGF-β1 (Homo sapiens, UniProt P01137); test: GAG-binding plate assay; conditions: wells coated with 5 μg/ml GAG; TGF-β1 100, 200 or 400 ng/ml
T1 construct: full length mature TGF-β1 is 112 amino acids in length
Description: GAGs are immobilized in each well and then challenged with TGF-β1 according to the manufacturer's instructions. Briefly, triplicate wells are first pre-coated with 5 μg/ml of heparin, HS^PM, HS16^+ve or HS16^−ve in standard assay buffer (SAB: 100 mM NaCl, 50 mM sodium acetate, 0.2% v/v Tween 20, pH 7.2), and then incubated overnight at room temperature. The plates are next washed carefully three times with SAB, blocked with 250 μl of blocking solution (0.4% w/v fish skin gelatine, Sigma-Aldrich, in SAB) and incubated for 1 h at 37° C. TGF-β1 was then dissolved in blocking solution at a concentration of 100, 200, or 400 ng/ml. The plates are washed three times with SAB and each dilution of protein (200 μl) is dispensed into triplicate wells and incubated for 2 h at 37° C., rinsed with SAB and 200 μl of 750 ng/ml monoclonal mouse anti-TGF-β1 antibody (MAB2401, R&D Systems) added in blocking solution. Plates are then incubated for 1 h at 37° C., washed with SAB, and 200 μl of 1 μg/ml polyclonal goat anti-mouse biotinylated antibody (ab6788, Abcam) added in blocking solution. Again, plates are incubated for 1 h at 37° C., washed with SAB, and 200 μl of 220 ng/ml ExtrAvidin AP (Sigma-Aldrich) is added in blocking solution, incubated for 30 min at 37° C., and then rinsed with SAB. Finally, 200 μl of development reagent (SigmaFAST p-Nitrophenyl phosphate, Sigma-Aldrich) is added, incubated at 37° C. for 40 min and read at 405 nm within 1 h.
To determine the ability of TGF-β1 to bind to heparin, we utilized positively-charged GAG-binding plates (Iduron) as a capture substrate. GAGs were immobilized in each well and then challenged with TGF-β1 according to the manufacturer's instructions. Briefly, triplicate wells were first pre-coated with 5 μg/ml of full length heparin, size-fractionated heparin (dp14, 16, 18, 20, 22 and 24) or selectively […] heparin prepared in standard assay buffer (SAB: 100 mM NaCl, 50 mM sodium acetate, 0.2% v/v Tween 20, pH 7.2), and then incubated overnight at room temperature. The plates were next washed carefully three times with SAB, blocked with 250 μl of blocking solution (0.4% w/v fish skin gelatine, Sigma-Aldrich, in SAB) and incubated for 1 h at 37° C. TGF-β1 was then dissolved in blocking solution at a concentration of 100, 200, or 400 ng/ml. The plates were washed three times with SAB and each dilution of protein (200 μl) was dispensed into triplicate wells and incubated for 2 h at 37° C., rinsed with SAB and 200 μl of 750 ng/ml monoclonal mouse anti-TGF-β1 antibody (MAB2401, R&D Systems) added in blocking solution. […] Finally, 200 μl of development reagent (SigmaFAST p-Nitrophenyl phosphate, Sigma-Aldrich) was added, incubated at 37° C. for 40 min and read at 405 nm within 1 h.

TGF-β1 [2] = molecular target: T1, TGF-β1; test: Differential scanning fluorimetry (DSF) of TGF-β1; type: binding; conditions: TGF-β1 2.5 μM, DTT 10 mM, heparin 25 μM
Description: DSF was performed on a 7500 Fast Real PCR System (software version 1.4, Applied Biosystems), as described previously (34,35). TGF-β1 (2.5 μM) was tested with or without heparin (25 μM). To facilitate the melting of TGF-β1, 10 mM of dithiothreitol (DTT) was added to the reaction mix. Experiments were run as previously described (34). First derivatives of the melting curves were calculated using Origin 7 (OriginLab Corp.) to determine the melting temperature of TGF-β1 under the various conditions.

TGF-β1 [3] = molecular target: T1, TGF-β1; test: SPR analysis of TGF-β1 binding to biotinylated heparin on SA chip
Description: Biotinylated heparin was prepared based on the protocol reported by Hernaiz et al. (33). Briefly, 20 mg of heparin was filter-sterilized (0.22 μm) in 1 ml of water and incubated with 8.6 μmol of N-hydroxysuccinimide-biotin (NHS-biotin) (Pierce) in 20 μl of dimethyl sulfoxide (DMSO) for 2 h at 4° C. The biotinylated heparin was then extensively dialyzed (7000 MWCO) to remove unreacted biotin. Immobilization of the biotinylated heparin onto a streptavidin (SA) sensor chip (GE Healthcare) was carried out using the immobilization wizard on the Biacore T100 (GE Healthcare) with a targeted immobilization level of approximately 40 response units (RUs). HBS-EP running buffer (10 mM HEPES, 150 mM NaCl, 3.0 mM EDTA, 0.05% (v/v) Tween 20, pH 7.4) was used for the immobilization.
TGF-β1-heparin interactions were effected by preparing a series of TGF-β1 protein samples (50 to 800 nM final concentration) diluted in HBS-EP-0.1 running buffer (0.1% instead of 0.05% (v/v) Tween 20). […] The sample solutions were then injected over the heparin-coated chip at a flow rate of 30 μl/min for 120 s, with HBS-EP-0.1 being subsequently passed over the chip for a further 1200 s to monitor TGF-β1 dissociation. After dissociation, the sensor surface on the chip was regenerated by 2 washes of 2 M NaCl injected at 30 μl/min for 60 s. The response was measured as a function of time (sensogram) at 25° C. […]

T1 sequence (P01137 279-390 limits assumed): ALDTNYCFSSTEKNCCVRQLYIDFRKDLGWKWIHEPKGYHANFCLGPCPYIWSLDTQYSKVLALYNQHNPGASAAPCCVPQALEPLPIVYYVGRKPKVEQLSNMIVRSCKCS

heparin was tested. Which “TGF-β1 binding to immobilized GAG” value (TGF-β1 [1]) did it give?
Its value is “bound in a dose-dependent manner”.

And the “melting temperature of TGF-β1 upon addition of heparin” value (TGF-β1 [2])?
Its value is 47.5 °C.

And the “TGF-β1 binding to heparin immobilized on Biacore SA-chip” value (TGF-β1 [3])?
Its value is “bound in a dose-dependent manner”.

What about the Kd (TGF-β1 [3]; TGF-β1 50 to 800 nM injected over heparin-coated SA chip) of the same substance?
Its Kd is about 475 nM.
